Target: T1, human vitamin D receptor (VDR) (Homo sapiens, UniProt P11473)
T1 construct: expressed in transfected cells; host or cells: HEK293 cells (ATCC), transient transfection
T1 sequence (P11473 127-423 limits assumed): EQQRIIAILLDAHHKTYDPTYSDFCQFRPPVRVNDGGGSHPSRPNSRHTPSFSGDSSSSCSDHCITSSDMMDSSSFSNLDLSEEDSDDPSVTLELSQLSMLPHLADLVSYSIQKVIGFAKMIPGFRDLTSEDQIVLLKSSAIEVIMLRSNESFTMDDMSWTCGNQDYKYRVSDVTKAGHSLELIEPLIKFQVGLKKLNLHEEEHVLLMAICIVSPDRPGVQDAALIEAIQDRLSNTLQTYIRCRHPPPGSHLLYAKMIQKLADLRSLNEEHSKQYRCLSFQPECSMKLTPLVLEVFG
Assay: Human vitamin D receptor (VDR) agonist activity, GAL4-VDR LBD luciferase transactivation assay in transiently transfected HEK293 cells
Assay type: cell-based
Settings: hybrid VDR-GAL4 receptor, pFR-Luc luciferase reporter, 16 h incubation, read-out: Effective concentrations of half maximal activation (EC50)
From the text: By way of example, the human vitamin D receptor (VDR) agonist activity of the claimed compounds can be tested using a cell based transactivation assay in an eukaryotic cell line. After a co-transfection, using a reporter plasmid construct and a hybrid receptor construct containing the ligand-binding domain of the human VDR linked to the DNA-binding domain of the yeast transcription factor GAL4, the cultured cells were stimulated by the VDR agonists. The hybrid VDR-GAL4 receptor binds the VDR agonists and transactivates luciferase reporter expression through the GAL4-response elements in the promoter of the luciferase gene (reporter construct). The VDR agonist binding and transactivation is determined by measuring the luciferase luminescence activity. The effective concentration of half maximal activation (EC50) was determined for the VDR agonists by means of dose-response experiments. The details of the protocol method of this test according to the invention are described in the example section. […]

Row | EC50 | Compound
1 | 113 nM | CC/C(=C\C=C\C(O)(CC)CC)c1cccc(CCc2ccc(CO)c(C(C)O)c2)c1 (racemic) [Comp1]
2 | 7 nM | CC/C(=C\C=C\C(O)(CC)CC)c1cccc(CCc2ccc(C(C)O)c(CO)c2)c1 (racemic) [I-a, (4E,6E)-3-ethyl-7-(3-(4-(1-hydroxyethyl)-3-(hydroxymethyl)phenethyl)phenyl)nona-4,6-dien-3-ol]
